According to US20260315499A1, “2'- {HETEROCYCLYL (ARYL/ALKYL) METHYL} - CANNABIDIOL COMPOUNDS AND PROCESS FOR PREPARATION THEREOF” (COUNCIL OF SCIENTIFIC & INDUSTRIAL RESEARCH, priority 2023, published 2026):

Legend:
[1] = Cell viability assay in macrophage RAW264.7 cells (MTT); type: cell-based; details: mouse, read-out: % cell viability ± SD; for viability at 24 h, 5 µM: RAW264.7, 5 μM; for viability at 24 h, 10 µM: RAW264.7, 10 μM
Method: RAW264.7 cells were seeded in 96-well cell culture plates at a density of 1×10^4 cells per well and incubated overnight at 37° C. with 5% CO2. Next day, the cells were treated with CBD or its derivatives at 5 μM and/or 10 μM concentration for 24 hrs. The MTT dye (2.5 mg/ml, 20 μL) was added to each well 4 hrs before termination (Molecules. 2022, 27, 8068). After 4 hrs of incubation with MTT, the supernatant was discarded, and the formazan crystals were dissolved by adding 100 μL DMSO. The absorbance was recorded at 540 nm on microplate reader (Tecan Infinite Pro).

[2] = Cell viability assay in differentiated neuronal cells (MTT), SHSY5Y; type: cell-based; details: human, read-out: % Cell viability ± SD, SHSY5Y
Source text: (§1) In the present disclosure outlined herein, a focused library of cannabidiol analogues were studied for possible neuro-protective potential employing cell line-based stress model systems which mimic the biological stress conditions in vitro (J Cell Biochem., 2018, 119(8), 6482-6491).
(§2) Human neuroblastoma cells (SHSY5Y) and mouse neuroblastoma cells (N2A) were procured from American Type Culture Collection (ATCC). SHSY5Y cell cultures were maintained in DMEM F12 (Invitrogen) whereas N2A were cultured in DMEM (Invitrogen) with 10% Fetal Bovine Serum (Gibco) medium, subjected to differentiation to acquire neuronal morphology (employing differentiation media DMEM-F12, 3-5% FBS, (For differentiation, low concentration of FBS was used) and 50 μM retinoic acid). Differentiated cells were later seeded into 96 well plates, at a density of 1×10^4 before being incubated for 48 hrs with the synthesized library. The exhausted culture media was substituted with new culture media containing 0.5 mg/ml MTT dye. Eventually, the OD at 490 nm excitation was measured using a 96-well plate reader. The proportion of viable cells was determined as percentage of absorbance of untreated cultures relative to control.

[3] = Cell viability assay in differentiated neuronal cells (MTT), N2A; type: cell-based; details: mouse, read-out: % Cell viability ± SD, N2A
Source text: as §1, §2

[4] = test system: nitric oxide (NO) production in RAW264.7 macrophages; assay: In vitro anti-inflammatory activity: nitric oxide production (Griess) in LPS-exposed RAW264.7 macrophages; type: cell-based, mouse; details: for inhibition at 5 µM / inhibition at 10 µM: Mus musculus, RAW264.7, read-out: % NO Inhibition ± SD; for inhibition at 5 µM / inhibition at 10 µM / % NO inhibition: LPS 24 hrs; for % NO inhibition: concentration not given
Method: Measurement of Nitric oxide: RAW264.7 macrophages were seeded in 96-well plates with a density of 0.5×10^5 cells/well and incubated overnight at 37° C. in a 5% CO2 atmosphere. The cells were treated with different concentration of CBD and its analogues and exposed to LPS for 24 hrs. For nitric oxide (NO) determination, the cell culture supernatant was taken and mixed with equal volume of Griess reagent in another 96 well plate at room temperature (Biomed Pharmacother., 2017, 92, 175-186). The absorbance was measured at 540 nm. The final calculations were determined on a NaNO2 standard curve.

Molecule | viability at 24 h, 5 µM [1] | viability at 24 h, 10 µM [1] | viability at 48 h, 20 µM [2] | viability at 48 h, 20 µM [3] | inhibition at 5 µM [4] | inhibition at 10 µM [4] | % NO inhibition [4] | % NO Inhibition ± SD ([4]; LPS alone 1 μg/ml (0% reference))
C=C(C)[C@@H]1CCC(C)=C[C@H]1c1c(O)c(CN2CCOCC2)c(CCCCC)c(CN2CCOCC2)c1O [A1′, 2′,4′-{bis-(morpholin-1-ylmethyl)}-cannabidiol] | 94.4 ± 0.9% | 92.4 ± 1.2% | 93.6 ± 2.01% | 94.7 ± 1.86% | 15.6 ± 2.5% | 23.4 ± 3.8% | greater than 20% | –
C=C(C)[C@@H]1CCC(C)=C[C@H]1c1c(O)cc(CCCCC)c(CN2CCCCC2)c1O [A2, 2′-(piperidin-1-ylmethyl)-cannabidiol] | 65.9 ± 6.5% | 61.7 ± 8.1% | 95.8 ± 1.1% | 96.9 ± 3.77% | – | – | – | –
C=C(C)[C@@H]1CCC(C)=C[C@H]1c1c(O)cc(CCCCC)c(CN2CCC(C(C)C)CC2)c1O [A3, 2′-{(4-isopropylpiperidin-1-yl)methyl}-cannabidiol] | 92.8 ± 0.9% | 89.9 ± 1.2% | 103 ± 2.25% | 99.7 ± 0.42% | 4.9 ± 1.4% | 10.7 ± 2.1% | – | –
C=C(C)[C@@H]1CCC(C)=C[C@H]1c1c(O)cc(CCCCC)c(CN2CCC(O)CC2)c1O [A4, 2′-{(4-hydroxypiperidin-1-yl)methyl}-cannabidiol] | 93.8 ± 1.14% | 90.6 ± 0.7% | 97.28 ± 0.54% | 97.71 ± 0.81% | 11.4 ± 2.9% | 20.8 ± 2.5% | greater than 20% | –
C=C(C)[C@@H]1CCC(C)=C[C@H]1c1c(O)cc(CCCCC)c(CN2CCC(c3ccccc3)CC2)c1O [A5, 2′-{(4-phenylpiperidin-1-yl)methyl}-cannabidiol] | 94.4 ± 1.3% | 90.4 ± 0.9% | 94.5 ± 1.12% | 90.6 ± 1.85% | 5.8 ± 2.4% | 12.3 ± 3.1% | – | –
C=C(C)[C@@H]1CCC(C)=C[C@H]1c1c(O)cc(CCCCC)c(CN2CCC(C(F)(F)F)CC2)c1O [A6, 2′-[{4-(trifluoromethyl)piperidin-1-yl}methyl]-cannabidiol] | 94.1 ± 1.8% | 92 ± 1.1% | 27 ± 2.02% | 25.3 ± 1.47% | 7.6 ± 3% | 11.8 ± 1.9% | – | –
C=C(C)[C@@H]1CCC(C)=C[C@H]1c1c(O)cc(CCCCC)c(CN2CCC(Cc3ccccc3)CC2)c1O [A7, 2′-{(4-benzylpiperidin-1-yl)methyl}-cannabidiol] | 90.1 ± 1.3% | 93 ± 1.7% | 102 ± 1.57% | 101.7 ± 0.47% | 8.4 ± 3.1% | 16 ± 1.2% | – | –
C=C(C)[C@@H]1CCC(C)=C[C@H]1c1c(O)cc(CCCCC)c(CN2CCN(C)CC2)c1O [A8, 2′-{(4-methylpiperazin-1-yl)methyl}-cannabidiol] | 94.7 ± 2.7% | 87.1 ± 1.9% | 89.4 ± 1.7% | 93.3 ± 0.39% | 10.7 ± 2.3% | 19.6 ± 3.2% | – | –
C=C(C)[C@@H]1CCC(C)=C[C@H]1c1c(O)cc(CCCCC)c(CN2CCN(CC)CC2)c1O [A9, 2′-{(4-ethylpiperazin-1-yl)methyl}-cannabidiol] | 94.2 ± 2.1% | 87.6 ± 0.1% | 91.67 ± 0.56% | 94.3 ± 1.3% | 14.6 ± 3.3% | 27.9 ± 0.4% | more than 25% | –
C=C(C)[C@@H]1CCC(C)=C[C@H]1c1c(O)cc(CCCCC)c(CN2CCN(CCO)CC2)c1O [A10, 2′-[{4-(2-hydroxyethyl)piperazin-1-yl}methyl]-cannabidiol] | 97.5 ± 1.7% | 95 ± 2.6% | 98.1 ± 2.25% | 96 ± 2.17% | 48.9% | 68.3% | – | –
C=C(C)[C@@H]1CCC(C)=C[C@H]1c1c(O)cc(CCCCC)c(CN2CCN(C(C)=O)CC2)c1O [A11, 2′-[{4-(piperazin-1-yl)ethan-1-one}methyl]-cannabidiol] | 93.3 ± 0.4% | 91.6 ± 0.2% | 101 ± 3.48% | 102 ± 1.53% | 15.6 ± 1.7% | 31.4 ± 3.6% | more than 25% | –
C=C(C)[C@@H]1CCC(C)=C[C@H]1c1c(O)cc(CCCCC)c(CN2CCN(c3ccccc3)CC2)c1O [A12, 2′-{(4-phenylpiperazin-1-yl)methyl}-cannabidiol] | 94.5 ± 1% | 92.7 ± 0.5% | 95.9 ± 3.39% | 96.2 ± 2.32% | 8.6 ± 0.93% | 11.4 ± 3.5% | – | –
C=C(C)[C@@H]1CCC(C)=C[C@H]1c1c(O)cc(CCCCC)c(CN2CCN(C3CC3)CC2)c1O [A13, 2′-{(4-cyclopropylpiperazin-1-yl)methyl}-cannabidiol] | 89.3 ± 2% | 93.9 ± 4.3% | 96.2 ± 4.87% | 97.2 ± 3.51% | 12 ± 1.7% | 27.3 ± 2.6% | more than 25% | –
C=C(C)[C@@H]1CCC(C)=C[C@H]1c1c(O)cc(CCCCC)c(CN2CCN(c3ccc(Cl)cc3)CC2)c1O [A14, 2′-[{4-(4-chlorophenyl)piperazine}methyl]-cannabidiol] | 95.2 ± 0.7% | 89.8 ± 1.1% | 90.5 ± 0.14% | 95.9 ± 4.04% | 8.5 ± 1.7% | 14.2 ± 3.8% | – | –
C=C(C)[C@@H]1CCC(C)=C[C@H]1c1c(O)cc(CCCCC)c(CN2CCN(c3ncccn3)CC2)c1O [A15, 2′-[{4-(pyrimidin-2-yl)piperazin-1-yl}methyl]-cannabidiol] | 93.4 ± 1.1% | 89.9 ± 0.9% | 81.8 ± 1.17% | 85.2 ± 1.25% | 4.8 ± 0.02% | 14.5 ± 0.6% | – | –
C=C(C)[C@@H]1CCC(C)=C[C@H]1c1c(O)cc(CCCCC)c(CNc2cnccn2)c1O [A16, 2′-{(pyrazin-2-ylamino)methyl}-cannabidiol] | 93.6 ± 1.3% | 87.7 ± 0.8% | 86.97 ± 0.12% | 89.85 ± 0.03% | 11.5 ± 1.2% | 18.3 ± 1% | – | –
Lipopolysaccharide [LPS, reference compound] | – | – | – | – | – | – | – | 0%
